Results from ChEMBL document CHEMBL4265942, “Four new antitumor metabolites isolated from a mutant 3-f-31 strain derived from Penicillium purpurogenum G59” (Eur J Med Chem, 2018).

Tests used:
[1] = tested on: PANC-1; assay: Antiproliferative activity against human PANC1 cells assessed as inhibition of cell growth after 72 hrs by sulforhodamine B assay; type: functional, cell-based; conditions: PANC-1, 72 h
[2] = tested on: HCT-116; assay: Down regulation of ERK1/2 expression in human HCT116 cells after 48 hrs by Western blot analysis; type: functional, cell-based
[3] = tested on: HCT-116; assay: Antitumor activity against human HCT116 cells xenografted in BALB/c nu/nu mouse assessed as tumor growth inhibition at 20 mg/kg administered peritoneally once daily for 14 days measured 24 hrs post last dose relative to control; type: functional; conditions: read-out: TGI
[4] = tested on: HT-29; assay: Antiproliferative activity against human HT-29 cells assessed as inhibition of cell growth after 72 hrs by sulforhodamine B assay; type: functional, cell-based; conditions: HT-29, 72 h
[5] = tested on: HCT-116; assay: Antiproliferative activity against human HCT116 cells assessed as inhibition of cell growth after 72 hrs by sulforhodamine B assay; type: functional, cell-based; conditions: HCT-116, 72 h
[6] = tested on: HCT-116; assay: Down regulation of STAT3 expression in human HCT116 cells after 48 hrs by Western blot analysis; type: functional, cell-based
[7] = tested on: HCT-116; assay: Down regulation of phosphorylated STAT3 expression in human HCT116 cells after 48 hrs by Western blot analysis; type: functional, cell-based
[8] = tested on: HCT-116; assay: Antitumor activity against human HCT116 cells xenografted in BALB/c nu/nu mouse assessed as tumor growth inhibition at 5 mg/kg administered peritoneally once daily for 14 days measured 24 hrs post last dose relative to control; type: functional; conditions: read-out: TGI
[9] = tested on: Mus musculus; assay: Toxicity in BALB/c nu/nu mouse xenografted with human HCT116 cells assessed as spleen index at 20 mg/kg administered peritoneally once daily for 14 days measured 24 hrs post last dose (reference value: 0.41 +/- 0.08%); type: organism-based; conditions: in vivo, ip
[10] = tested on: HCT-116; assay: Down regulation of AKT expression in human HCT116 cells after 48 hrs by Western blot analysis; type: functional, cell-based
[11] = tested on: NCI-H1975; assay: Antiproliferative activity against human NCI-H1975 cells assessed as inhibition of cell growth after 72 hrs by sulforhodamine B assay; type: functional, cell-based; conditions: NCI-H1975, 72 h
[12] = tested on: Mus musculus; assay: Toxicity in BALB/c nu/nu mouse xenografted with human HCT116 cells assessed as spleen index at 5 mg/kg administered peritoneally once daily for 14 days measured 24 hrs post last dose (reference value: 0.41 +/- 0.08%); type: organism-based; conditions: in vivo, ip
[13] = tested on: HCT-116; assay: Down regulation of Raf1 expression in human HCT116 cells after 48 hrs by Western blot analysis; type: functional, cell-based
[14] = tested on: MCF7; assay: Antiproliferative activity against human MCF7 cells assessed as inhibition of cell growth after 72 hrs by sulforhodamine B assay; type: functional, cell-based; conditions: MCF7, 72 h
[15] = tested on: LS180; assay: Antiproliferative activity against human LS180 cells assessed as inhibition of cell growth after 72 hrs by sulforhodamine B assay; type: functional, cell-based; conditions: LS180, 72 h
[16] = tested on: A549; assay: Antiproliferative activity against human A549 cells assessed as inhibition of cell growth after 72 hrs by sulforhodamine B assay; type: functional, cell-based; conditions: A549, 72 h
[17] = tested on: K562; assay: Antiproliferative activity against human K562 cells assessed as inhibition of cell growth after 72 hrs by MTT assay; type: functional, cell-based; conditions: K562, 72 h
[18] = tested on: L929; assay: Cytotoxicity against mouse L929 cells assessed as inhibition of cell growth after 72 hrs by MTT assay; type: cell-based; conditions: L929, 72 h
[19] = tested on: SW480; assay: Antiproliferative activity against human SW480 cells assessed as inhibition of cell growth after 72 hrs by sulforhodamine B assay; type: functional, cell-based; conditions: SW480, 72 h
[20] = tested on: BXPC-3; assay: Antiproliferative activity against human BxPC3 cells assessed as inhibition of cell growth after 72 hrs by sulforhodamine B assay; type: functional, cell-based; conditions: BXPC-3, 72 h
[21] = tested on: HL-60; assay: Antiproliferative activity against human HL60 cells assessed as inhibition of cell growth after 72 hrs by MTT assay; type: functional, cell-based; conditions: HL-60, 72 h
[22] = tested on: HCT-116; assay: Down regulation of HSP90 expression in human HCT116 cells after 48 hrs by Western blot analysis; type: functional, cell-based
[23] = tested on: PC-3; assay: Antiproliferative activity against human PC3 cells assessed as inhibition of cell growth after 72 hrs by sulforhodamine B assay; type: functional, cell-based; conditions: PC-3, 72 h
[24] = tested on: Mus musculus; assay: Toxicity in BALB/c nu/nu mouse xenografted with human HCT116 cells assessed as spleen index at 10 mg/kg administered peritoneally once daily for 14 days measured 24 hrs post last dose (reference value: 0.41 +/- 0.08%); type: organism-based; conditions: in vivo, ip
[25] = tested on: HeLa; assay: Antiproliferative activity against human HeLa cells assessed as inhibition of cell growth after 72 hrs by sulforhodamine B assay; type: functional, cell-based
[26] = tested on: HepG2; assay: Antiproliferative activity against human HepG2 cells assessed as inhibition of cell growth after 72 hrs by sulforhodamine B assay; type: functional, cell-based; conditions: HepG2, 72 h
[27] = tested on: HCT-116; assay: Down regulation of survivin expression in human HCT116 cells after 48 hrs by Western blot analysis; type: functional, cell-based
[28] = tested on: HCT-116; assay: Antitumor activity against human HCT116 cells xenografted in BALB/c nu/nu mouse assessed as tumor growth inhibition at 10 mg/kg administered peritoneally once daily for 14 days measured 24 hrs post last dose relative to control; type: functional; conditions: read-out: TGI

IC50 [1]: 4.04 µM
IC50 [4]: 8.4 µM
IC50 [5]: 1.91 µM
IC50 [11]: 3.75 µM
IC50 [14]: 3.73 µM
IC50 [16]: 10.9 µM
IC50 [17]: 4.2 µM
IC50 [19]: 4.64 µM
IC50 [20]: 5.96 µM
IC50 [21]: 4.55 µM
IC50 [23]: 8.7 µM
IC50 [25]: 5.09 µM
IC50 [26]: 5.21 µM
SMILES: CCCCCC[C@@H](C)C[C@@H](C)/C=C/C(=O)N[C@H]1C[C@@]2(O[C@H]1O)[C@@H]1O[C@@H]1[C@](O)(CC(C)=O)[C@@H]1O[C@@H]12
Activity [2]: Dose-dependent effect
inhibition in vivo at 20 mg/kg [3]: 37.9%
Activity [6]: Dose-dependent effect
Activity [7]: Dose-dependent effect
inhibition in vivo at 5 mg/kg [8]: 51.6%
Activity_index [9]: 0.48
Activity [10]: Dose-dependent effect
Activity_index [12]: 0.95
Activity [13]: Dose-dependent effect
IC50 [15]: 17.4 µM
IC50 [18]: 3.8 µM
Activity [22]: Dose-dependent effect
Activity_index [24]: 0.37
Activity [27]: Dose-dependent effect
inhibition in vivo at 10 mg/kg [28]: 37.8%
